Experimental data reported in patent EP0357332A2, “Renin inhibitors useful for the treatment of aids by inhibition of HIV protease” (MERCK & CO. INC., priority 1988, dated 1990).

What was measured:
synthetic viral protease = molecular target: T1, synthetic viral protease (Human immunodeficiency virus type 1 group M subtype B, UniProt P03366); assay: Inhibition of beta-casein hydrolysis by synthetic viral protease (14C-beta-casein, TCA soluble counts); type: biochemical, HIV; details: 14C-beta-casein substrate, 4 hours
T1 construct: amino acid residues 69-167 of the pol open reading frame in Ratner, L. et al, Nature, 313, 277 (1985); made in house; host or cells: chemical synthesis (Merrifield solid-phase), no expression host
Method: Inhibition of the synthetic viral protease reaction, of Example 2, with ¹⁴C - beta-casein as substrate in lieu of peptide substrates, was performed. Beta-casein (Sigma) was dialysed overnight at 4°C in 40 mM KPO₄, pH 7.0. Four microliters of the substrate (0.31 mg/ml) are used in each 40 µl reaction. After reaction with the protease for 4 hours, 10 µl of 10% bovine serum albumin and 500 µl of 10% trichloroacetic acid are added, the sample placed on ice for 30 min and centrifuged for 10 min at 15,000 g. From the supernatant a 300 µl aliquot is withdrawn and diluted into 7 ml liquid scintillation cocktail. Typical background level of TCA soluble counts (no enzyme added) is 200 and no inhibitor samples give a net signal of 1000 cpm.

[1] = molecular target: T2, synthetic protease [amino acid residues 69-167 of the pol open reading frame] (Human immunodeficiency virus type 1 group M subtype B, UniProt P03366); assay: Assay for inhibition of synthetic viral protease with peptide substrate Val-Ser-Gln-Asn-Tyr-Pro-Ile-Val (HPLC); type: biochemical, HIV; details: pH 5.5, 30°C, 1 hr
T2 construct: amino acid residues 69-167 of the pol open reading frame in Ratner, L. et al, Nature, 313, 277 (1985); made in house; host or cells: chemical synthesis (Merrifield solid-phase), no expression host
Method: Inhibition studies of the reaction of the synthetic protease [amino acid residues 69-167 of the pol open reading frame in Ratner, L. et al, Nature, 313, 277 (1985) and synthesized by Merrifield solid-phase synthesis] with a peptide substrate [Val-Ser-Gln-Asn-Tyr-Pro-Ile-Val, 2 mg/mL when the reaction is initiated] were in 50 mM Na acetate, pH 5.5, at 30°C for 1 hr. Various concentrations of inhibitor in 1.0 µl DMSO were added to 36 µl of assay solution and the reaction initiated by the addition of 4 ul (1.6 µg) of synthetic protease. The reaction was quenched with 160 ul of 12% acetic acid. Products of the reaction were separated by HPLC (VYDAC wide pore 5 cm C-18 reverse phase, acetonitrile gradient, 0.1% trifluoroacetic acid). The extent of inhibition of the reaction was determined from the peak heights of the products. HPLC of the products, independently synthesized, provided quantitation standards and confirmation of the product composition.

[2] = Inh. Conc. 0.01 µM, listed as Cmpd A
[3] = Inh. Conc. 0.1 µM, listed as Cmpd A
[4] = Inh. Conc. 1 µM, listed as Cmpd A
[5] = Inh. Conc. 0.01 µM, listed as Cmpd B
[6] = Inh. Conc. 0.1 µM, listed as Cmpd B
[7] = Inh. Conc. 1 µM, listed as Cmpd B

SMILES | PERCENT INHIBITION (synthetic viral protease; [2]) [%] | PERCENT INHIBITION (synthetic viral protease; [3]) [%] | PERCENT INHIBITION (synthetic viral protease; [4]) [%] | PERCENT INHIBITION (synthetic viral protease; Inh. Conc. 10 µM, listed as Cmpd A) [%] | PERCENT INHIBITION (synthetic viral protease; Inh. Conc. 100 µM, listed as Cmpd A) [%] | PERCENT INHIBITION [1, 2] [%] | PERCENT INHIBITION [1, 3] [%] | PERCENT INHIBITION [1, 4] [%] | PERCENT INHIBITION ([1]; Inh. Conc. 100 µM) [%] | PERCENT INHIBITION (synthetic viral protease; Inh. Conc. 0.001 µM) [%] | PERCENT INHIBITION (synthetic viral protease; [5]) [%] | PERCENT INHIBITION (synthetic viral protease; [6]) [%] | PERCENT INHIBITION (synthetic viral protease; [7]) [%] | PERCENT INHIBITION (synthetic viral protease; Inh. Conc. 10 µM, listed as Cmpd B) [%] | PERCENT INHIBITION (synthetic viral protease; Inh. Conc. 100 µM, listed as Cmpd B) [%] | PERCENT INHIBITION ([1]; Inh. Conc. 0.001 µM) [%] | PERCENT INHIBITION [1, 5] [%] | PERCENT INHIBITION [1, 6] [%] | PERCENT INHIBITION [1, 7] [%] | PERCENT INHIBITION ([1]; Inh. Conc. 10 µM) [%]
CC(C)C[C@H](NC(=O)C(Cc1ccccc1)C[C@H](O)[C@H](Cc1ccccc1)NC(=O)[C@H](Cc1ccccc1)NC(=O)[C@H](Cc1ccccc1)NC(=O)OC(C)(C)C)C(=O)N[C@@H](Cc1ccccc1)C(N)=O (single isomer, unassigned) [A, N′-(1,1-Dimethylethoxycarbonyl)-Phe-Phe-5(S)-Amino-4(S)-Hydroxy-6-Phenyl-2(R or S)-(Phenylmethyl)Hexanoyl-Leu-Phe-Amide] | 0 | 14 | 82 | 65 | 97 | 0 | 20 | 40 | 100 | – | – | – | – | – | – | – | – | – | – | –
CC(C)C[C@H](NC(=O)C(Cc1ccccc1)C[C@H](O)[C@H](Cc1ccccc1)NC(=O)[C@H](Cc1ccccc1)NC(=O)[C@H](Cc1ccccc1)NC(=O)OC(C)(C)C)C(=O)N[C@@H](Cc1ccccc1)C(N)=O (single isomer, unassigned) [Compound B, N′-(1,1-Dimethylethoxycarbonyl)-Phe-Phe-5(S)-Amino-4(S)-Hydroxy-6-Phenyl-2(S or R)-(Phenylmethyl)Hexanoyl-Leu-Phe-Amide] | – | – | – | – | – | – | – | – | 100 | 20 | 67 | 97 | 95 | 91 | 60 | 20 | 60 | 100 | 100 | 100
